Laboratory results reported in PMC3509364 (Angewandte Chemie (International ed. in English), 2012).

Biological target: PAK1 (Homo sapiens, UniProt Q13153)
Experiment: PAK1 kinase inhibition, IC50 curves at 1 µM ATP
Assay type: biochemical

PAK1, sequence (Q13153 whole entry): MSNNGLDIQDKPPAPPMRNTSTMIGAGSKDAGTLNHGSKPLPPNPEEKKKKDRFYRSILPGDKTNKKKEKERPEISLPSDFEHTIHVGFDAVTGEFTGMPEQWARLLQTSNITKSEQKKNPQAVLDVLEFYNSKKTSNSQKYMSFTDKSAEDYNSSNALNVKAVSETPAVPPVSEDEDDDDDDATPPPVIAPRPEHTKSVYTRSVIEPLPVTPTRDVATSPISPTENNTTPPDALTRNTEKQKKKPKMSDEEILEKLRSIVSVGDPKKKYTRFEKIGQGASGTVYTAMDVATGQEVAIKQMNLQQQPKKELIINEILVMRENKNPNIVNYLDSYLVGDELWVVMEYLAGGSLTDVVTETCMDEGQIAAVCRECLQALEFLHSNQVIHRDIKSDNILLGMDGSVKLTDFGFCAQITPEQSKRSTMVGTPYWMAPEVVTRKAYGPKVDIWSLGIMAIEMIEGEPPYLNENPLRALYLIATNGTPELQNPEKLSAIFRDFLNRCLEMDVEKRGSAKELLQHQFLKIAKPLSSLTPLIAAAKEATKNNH

- IC50 (read-out: IC50 against PAK1, 1 µM ATP (Figure 3)): 625 ± 60 nM
Substance: SeCN
- fold weaker inhibitor of PAK1 than NCS complex 1 (ratio of IC50 values, 1 µM ATP): 7.5 fold
